Source: patent US20080114005A1, “Fibrate Compounds Having Ppar Agonist Activity” (Dr. Reddy's Laboratories Limited, priority 2004, published 2008)
Where a name gives a salt, the structure may show the parent alone.

Key:
Swiss albino mice = assay: plasma triglyceride lowering activity in Swiss albino mice; assay type: in vivo; conditions: 3.0 mg/kg orally for 6 days
Description: The properties of the derivatives of the invention were also evaluated in vivo. The following procedure was used to determine plasma triglyceride and total cholesterol lowering activity in Swiss albino mice.
Male Swiss albino mice (SAM) were obtained from National Institute Nutrition (NIN) and housed in Dr. Reddy's Laboratories Ltd (DRL) animal house. All these animals are maintained under 12 hour light and dark cycle at 25±1° C. Animals were given standard laboratory chow (NIN, Hyderabad, India) and water, ad libitum. SAM of 20-25 grams body weight range were used. See Oliver, P., Plancke, M. O., Marzin, D., Clavey, V., Sauzieres, J and Fruchart, J. C. Effects of fenofibrate, gemfibrozil and nicotinic acid on plasma lipoprotein levels in normal and hyperlipidemic mice, Atherosclerosis. 1988. 70: 107-114, incorporated herein by reference in its entirety. The test compounds can be administered orally to Swiss albino mice at the dose mentioned in table for 6 days. Control mice were treated with vehicle 0.25% Carboxymethylcellulose (CMC; dose 10 ml/kg). The blood samples from the retro-orbital sinus through heparinised capillary in EDTA containing tubes were collected in fed state 1 hour after drug administration on 0 and 6 days of treatment. After centrifugation plasma was separated for triglyceride measurement using commercial kits. See Wieland, O. Methods of Enzymatic analysis. Bergermeyer, H. O., Ed., 1963. 211-214; Trinder, P. Ann. Clin. Biochem. 1969. 6: 24-27, incorporated herein by reference in its entirety. Percent reduction was calculated as per the formula given in Petit, D., Bonnefis, M. T., Rey, C. and Infante, R. Effects of ciprofibrate on liver lipids and lipoprotein synthesis in normo- and hyperlipidemic rats. Atherosclerosis. 1988. 74 : 215-225.

human PPARα = target: T1, human PPARα (Homo sapiens, UniProt Q07869); assay: in vitro PPARα transactivation, GAL4-LBD luciferase reporter in HEK-293 cells; assay type: cell-based; conditions: luciferase fold activation relative to untreated cells
T1 construct: expressed in transfected cells; host or cells: HEK-293
T1 sequence (Q07869 239-466 limits assumed): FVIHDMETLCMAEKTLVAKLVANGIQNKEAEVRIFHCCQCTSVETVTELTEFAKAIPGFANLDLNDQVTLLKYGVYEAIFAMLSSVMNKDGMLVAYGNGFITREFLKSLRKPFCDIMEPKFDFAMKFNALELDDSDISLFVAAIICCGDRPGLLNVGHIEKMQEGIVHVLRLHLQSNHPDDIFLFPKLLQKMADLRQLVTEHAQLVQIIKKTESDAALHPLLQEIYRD
Text: A number of derivatives of the invention have shown PPAR agonist activity. The following procedure was used for in vitro determination of PPARα, γ and δ transactivation.
(§1) The ligand binding domain of human PPARγ1, PPARα or PPARδ was fused to the C-terminal end of DNA binding domain of yeast transcription factor GAL4 in eukaryotic expression vector. HEK-293 cells were transfected with either of these plasmids, reporter plasmid pGL2 (Gal4×5)˜SV40˜Luc and pAdVantage using superfect (Qiagen, Germany) for 3 hours. pAdVantage vector was used to enhance the luciferase expression. 48 hours after transfection, the cells were harvested and incubated overnight with or without test compounds at different concentrations. The cells were lysed and luciferase activity was measured using the LucLite kit (Packard USA). Luciferase activity was measured as fold activation relative to untreated cells.

[1] = tested on: hypercholesterolemic rat model; assay: plasma triglyceride and cholesterol lowering activity in hypercholesterolemic rat model; assay type: in vivo, Sprague Dawley rats; conditions: hypercholesterolemic rats, 3.0 mg/kg orally for 3 days; for Reduction (%) LDL: LDL cholesterol calculated by formula; for ↑HDL: increase of plasma HDL (under head Reduction (%)); for Reduction (%) TC: plasma total cholesterol; for Reduction (%) TG: plasma triglyceride
Description: The following procedure was used to determine plasma triglyceride and cholesterol lowering activity in hypercholesterolemic rat model.
Male Sprague Dawley rats (NIN stock) were bred in DRL animal house. Animals were maintained under 12 hour light and dark cycle at 25±1° C. Rats of 180-200 gram body weight range were used for the experiment. Animals are made hypercholesterolemic by feeding 2% cholesterol and 1% sodium cholate mixed with standard laboratory chow [National Institute of Nutrition (NIN), Hyderabad, India] for 6 days. Throughout the experimental period the animals were maintained on the same diet. The test compounds were administered orally at a dose mentioned in table for 3 days. Control group was treated with vehicle alone (0.25% CMC; 10 ml/kg). The blood samples were collected in fed state 1 hour after drug administration on 0 and 3 days of compound treatment. The blood was collected from the retro-orbital sinus through heparinised capillary in EDTA containing tubes. After centrifugation, plasma sample was separated for total cholesterol, HDL and triglyceride estimations. Measurement of plasma triglyceride, total cholesterol and HDL were done using commercial kits. LDL and VLDL cholesterol can be calculated from the data obtained for total cholesterol, HDL and triglyceride.
The percent reductions in blood sugar/triglycerides/total cholesterol were calculated according to the following formula:
OC=Zero day control group value
OT=Zero day treated group value
TC=Test day control group value
T=Test day treated group value.
The levels of LDL and VLDL cholesterol were calculated according to the formula:
VLDL cholesterol in mg/dl=[Total cholesterol-HDL cholesterol-LDL cholesterol] mg/dl.

human PPARδ = target: T2, human PPARδ (Homo sapiens, UniProt Q03181); assay: in vitro PPARδ transactivation, GAL4-LBD luciferase reporter in HEK-293 cells; assay type: cell-based; conditions: luciferase fold activation relative to untreated cells
T2 construct: expressed in transfected cells; host or cells: HEK-293
T2 sequence (Q03181 211-439 limits assumed): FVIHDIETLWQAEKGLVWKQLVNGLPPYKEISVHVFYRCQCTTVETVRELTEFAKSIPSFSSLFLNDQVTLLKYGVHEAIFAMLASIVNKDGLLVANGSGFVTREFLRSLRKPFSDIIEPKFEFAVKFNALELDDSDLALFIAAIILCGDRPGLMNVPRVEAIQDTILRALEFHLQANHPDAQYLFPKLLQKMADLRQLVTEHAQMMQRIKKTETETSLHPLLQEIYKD
Description: (§2) The following procedure was used for in vitro determination of PPARα, γ and δ transactivation.
as §1

human PPARγ1 = target: T3, human PPARγ1 (Homo sapiens, UniProt P37231); assay: in vitro PPARγ transactivation, GAL4-LBD luciferase reporter in HEK-293 cells; assay type: cell-based; conditions: luciferase fold activation relative to untreated cells
T3 construct: expressed in transfected cells; host or cells: HEK-293
T3 sequence (P37231 238-503 limits assumed): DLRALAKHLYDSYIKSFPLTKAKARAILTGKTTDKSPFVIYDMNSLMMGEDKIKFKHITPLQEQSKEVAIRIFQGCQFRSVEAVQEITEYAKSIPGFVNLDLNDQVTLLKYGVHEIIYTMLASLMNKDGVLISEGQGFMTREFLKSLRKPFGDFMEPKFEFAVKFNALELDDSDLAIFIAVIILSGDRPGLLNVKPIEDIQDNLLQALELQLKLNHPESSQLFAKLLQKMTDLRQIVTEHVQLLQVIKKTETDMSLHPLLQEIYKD
Description: as §2, §1

PPARα activation (human PPARα; test compound at 1 μM) | PPARα activation (human PPARα; test compound at 10 μM) | PPARδ activation (human PPARδ; test compound at 1 μM) | PPARδ activation (human PPARδ; test compound at 10 μM) | melting point | PPARγ activation (human PPARγ1; test compound at 1 μM) | PPARγ activation (human PPARγ1; test compound at 10 μM) | Structure (SMILES) | % reduction in TG (Swiss albino mice) | Reduction (%) LDL [1] | ↑HDL [1] | Reduction (%) TC [1] | Reduction (%) TG [1] | % reduction in TG (Swiss albino mice; 3 mg/kg) | Reduction (%) LDL ([1]; 3 mg/kg) | ↑HDL ([1]; 3 mg/kg) | Reduction (%) TC ([1]; 3 mg/kg) | Reduction (%) TG ([1]; 3 mg/kg)
 |  |  |  |  |  |  | CCCc1nn(C)c2c(=O)n(CCCc3ccc(OC(C)(C)C(=O)O)cc3)c(C)nc12.N=C(N)NCCC[C@H](N)C(=O)O [Example 79, Argenine salt of 2-{4-[3-(1,5-dimethyl-7-oxo-3-propyl-1,7-dihydro-pyrazolo[4,3-d]pyrimidin-6-yl)-propyl]-phenoxy}-2-methyl-propionic acid] | 55% |  |  |  |  |  |  |  |  | 
7.1 | 8.4 | 0 | 0 |  |  |  | CCCc1nn(C)c2c(=O)n(CCCc3cccc(OC(C)(C)C(=O)O)c3)c(C)nc12.N=C(N)NCCC[C@H](N)C(=O)O [Example 82, Argenine salt of 2-{3-[3-(1,5-dimethyl-7-oxo-3-propyl-1,7-dihydro-pyrazolo[4,3-d]pyrimidin-6-yl)-propyl]-phenoxy}-2-methyl-propionic acid] | 81% | 72% | 48% | 68% | 69% |  |  |  |  | 
1.6 | 3.6 | 0.3 | 0.6 | 86 to 88 °C |  |  | CCCc1nn(C)c2c(=O)n(CCOc3cccc(OC(C)(C)C(=O)OCC)c3)c(C)nc12 [Example 88, 2-{3-[2-(1,5-Dimethyl-7-oxo-3-propyl-1,7-dihydro-pyrazolo[4,3-d]pyrimidin-6-yl)-ethoxy]-phenoxy}-2-methyl-propionic acid ethyl ester] |  |  |  |  |  |  |  |  |  | 
2.1 | 7.4 | 0 | 0.4 | 140 to 142 °C | 0(54.5) | 0(62.8) | CCCc1nn(C)c2c(=O)n(CCOc3cccc(OC(C)(C)C(=O)O)c3)c(C)nc12 [Example 89, 2-{3-[2-(1,5-Dimethyl-7-oxo-3-propyl-1,7-dihydro-pyrazolo[4,3-d]pyrimidin-6-yl)-ethoxy]-phenoxy}-2-methyl-propionic acid] | 60% | 68% | 102% | 65% | 68% |  |  |  |  | 
6.4 | 7.3 | 0.1 | 4.0 |  | 17.3(85.5) | 36.6(110.3) | CCCc1nn(C)c2c(=O)n(CCCc3ccc(OC(C)(CC)C(=O)O)cc3)c(C)nc12 (centres unmarked) [Example 95, 2-{4-[3-(1,5-Dimethyl-7-oxo-3-propyl-1,7-dihydro-pyrazolo[4,3-d]pyrimidin-6-yl)-propyl]-phenoxy}-2-methyl-butyric acid] |  |  |  |  |  | 63% | 69% | 212% | 64% | 67%
 |  |  |  |  |  |  | CCCc1nn(C)c2c(=O)n(CCCc3ccc(OC(C)(CC)C(=O)O)cc3)c(C)nc12 (centres unmarked) [Example 96, Magnesium salt of 2-{4-[3-(1,5-dimethyl-7-oxo-3-propyl-1,7-dihydro-pyrazolo[4,3-d]pyrimidin-6-yl)-propyl]-phenoxy}-2-methyl-butyric acid] |  |  |  |  |  | 60% | 67% | 162% | 63% | 76%
 |  |  |  | 118 to 120 °C |  |  | CCCc1nn(C)c2c(=O)n(CCOc3cccc(O[C@](C)(CC)C(=O)O)c3)c(C)nc12 [Example 100, R-(+)-2-{3-[2-(1,5-Dimethyl-7-oxo-3-propyl-1,7-dihydro-pyrazolo[4,3-d]pyrimidin-6-yl)-ethoxy]-phenoxy}-2-methyl-butyric acid] | 76% | 76% | 145% | 70% | 60% |  |  |  |  | 
3.9 | 5.2 | 1.7 | 1.3 | 98 to 100 °C |  |  | CCCc1nn(C)c2c(=O)n(CCOc3cc(O[C@](C)(CC)C(=O)O)ccc3Cl)c(C)nc12 [Example 102, R-(+)-2-{4-Chloro-3-[2-(1,5-dimethyl-7-oxo-3-propyl-1,7-dihydro-pyrazolo[4,3-d]pyrimidin-6-yl)-ethoxy]-phenoxy}-2-methyl-butyric acid] | 67% | 55% | 45% | 51% | 51% |  |  |  |  | 
 |  |  |  | 119 to 120 °C |  |  | CCCc1nn(C)c2c(=O)n(CCOc3cccc(O[C@@](C)(CC)C(=O)O)c3)c(C)nc12 [Example 104, S-(−)-2-{3-[2-(1,5-Dimethyl-7-oxo-3-propyl-1,7-dihydro-pyrazolo[4,3-d]pyrimidin-6-yl)-ethoxy]-phenoxy}-2-methyl-butyric acid] | 70% | 77% | 158% | 71% | 72% |  |  |  |  | 
